System: lymphocytic leukemia P388
Assay: Therapeutical effect against lymphocytic leukemia P388
Type: in vivo, male CDF₁ mice
Conditions: dose 6 mg/kg intraperitoneally
Protocol: Five male CDF₁ mice each having a weight of about 22 g were used for each group as test animals, and 1 x 10⁶ cells of lymphocytic leukemia P388 were implanted intraperitoneally in the test animals. 24 hours after implantation, 0.2 mℓ of a phosphate buffer saline (hereinafter referred to as PBS) containing DC-102 was intraperitoneally administered. For comparison, 0.2 mℓ of PBS solution containing mitomycin C was intraperitoneally administered 24 hours after implantation of the tumor cells. The mean survival time (MST) after implantation and increased life span (ILS) represented by T/C (T: MST for test groups; C: MST for control group) are shown in Table 3.

`CO[C@@]12[C@H](COC(N)=O)C3=C(C(=O)C(C)=C(N)C3=O)N1C[C@@H]1N[C@@H]12` [Mitomycin C, mitomycin C] was tested, and the MST (24 hours after implantation of 1 x 10⁶ P388 cells) was 17.2 days and the “ILS (T/C)” value (T: MST for test groups, C: MST for control group) was 166.

Source: patent EP0264138B1, “Novel compound DC-102 and process for production thereof” (KYOWA HAKKO KOGYO CO., LTD., priority 1986, dated 1988)
